# Laboratory results as given in patent US20180360782A1, “METHOD OF MODULATING RIBONUCLEOTIDE REDUCTASE” (CASE WESTERN RESERVE UNIVERSITY, priority 2015, published 2018).
# Read-outs that look alike come from different tables or passages of the source. Square brackets hold non-standard residues; d marks the D form. Peptide text beside a SMILES is read from it. ξ: configuration not given here. ξY = NC(Cc1ccc(O)cc1)C(=O)O; Sar = CNCC(=O)O
# Legend:
# [1] = test system: MDA-MB-231 and HCT-116 cell lines; test: Growth inhibition screening assay (In Cell IC50); format: cell-based, human; conditions: 3 days with compound; for IC50: Homo sapiens, 72 h
# Experimental: (§1) Cell were maintained in standard tissue culture media (RPMI1640, +10% fetal bovine serum, plus antibiotic) and grown in a standard humidified 5% CO2 incubator at 37° C. Cells were regularly tested using the MycoAlert detection kit (Lonza Biologics) and shown to be mycoplasma-free. Initial compound screening was performed using both MDA-MB-23 land HCT-116 cell lines. For moderate throughput screening (up to 120 drugs per experiment), cells were seeded into 96 well plates and allowed to attach overnight. The following day media was removed and replaced with fresh compound containing media. Each compound was tested against both cell lines at 3 concentrations; 1 μM, 10 μM and 50 μM, in duplicate. Cells were incubated with compound containing media for three days in a standard 5% CO2 tissue culture incubator. Cell growth was assessed after 3 days using the DNA dye binding assay, as originally described by LaBarca and Paigen. Relative growth was independently calculated for each cell line, based on DNA content from corresponding cells grown in control media plus diluent (DMSO). Additional growth inhibition experiments utilized either the DNA binding assay or the Promega CellTiter 96® (MTT reduction) assay, with similar results. For detailed growth inhibition assays, cells (1500-2500 depending on the growth characteristics of the cell line) were seeded in standard 96 well tissue culture plates and allowed to attach overnight. The following day media was removed and replaced with drug containing media. Each dose group consisted of 5 replicate wells, and results are reported a Relative Growth, calculated as DNA or MTT reduction per well, divided by the signal from untreated cells, both harvested 3 days after drug administration.
# select cancer cell lines = test: Cellular IC50 of NSAAH library (Table 3); format: cell-based
# Experimental: as §1
# hRR (hRRM1 and hRRM2) [2] = target: T1, hRR (hRRM1 and hRRM2) (Homo sapiens, UniProt P23921); conditions: read-out: Cell-Free IC50; NSAAH library against hRR
# T1 sequence (P23921 1-792): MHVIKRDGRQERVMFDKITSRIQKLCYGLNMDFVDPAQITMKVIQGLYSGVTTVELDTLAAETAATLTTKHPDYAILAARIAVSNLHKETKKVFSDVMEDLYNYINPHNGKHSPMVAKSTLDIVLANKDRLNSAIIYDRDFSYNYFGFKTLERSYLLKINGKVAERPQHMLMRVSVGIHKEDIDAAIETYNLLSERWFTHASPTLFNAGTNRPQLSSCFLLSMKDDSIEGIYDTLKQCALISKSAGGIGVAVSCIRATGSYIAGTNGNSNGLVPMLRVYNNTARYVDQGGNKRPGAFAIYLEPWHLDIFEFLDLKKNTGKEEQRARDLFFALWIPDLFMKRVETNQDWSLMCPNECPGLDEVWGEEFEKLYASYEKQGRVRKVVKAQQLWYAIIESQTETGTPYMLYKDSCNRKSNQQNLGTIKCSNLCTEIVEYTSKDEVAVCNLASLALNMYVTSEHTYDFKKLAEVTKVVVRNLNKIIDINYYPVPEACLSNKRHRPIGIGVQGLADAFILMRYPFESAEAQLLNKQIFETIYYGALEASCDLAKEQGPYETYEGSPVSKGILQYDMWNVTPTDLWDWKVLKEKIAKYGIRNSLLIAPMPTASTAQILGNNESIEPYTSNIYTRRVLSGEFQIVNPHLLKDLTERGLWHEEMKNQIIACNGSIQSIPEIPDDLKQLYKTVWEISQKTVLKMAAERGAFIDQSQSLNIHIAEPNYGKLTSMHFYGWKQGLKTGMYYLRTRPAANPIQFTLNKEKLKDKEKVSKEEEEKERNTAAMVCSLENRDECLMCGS
# T1 sequence (P31350 1-389 partner): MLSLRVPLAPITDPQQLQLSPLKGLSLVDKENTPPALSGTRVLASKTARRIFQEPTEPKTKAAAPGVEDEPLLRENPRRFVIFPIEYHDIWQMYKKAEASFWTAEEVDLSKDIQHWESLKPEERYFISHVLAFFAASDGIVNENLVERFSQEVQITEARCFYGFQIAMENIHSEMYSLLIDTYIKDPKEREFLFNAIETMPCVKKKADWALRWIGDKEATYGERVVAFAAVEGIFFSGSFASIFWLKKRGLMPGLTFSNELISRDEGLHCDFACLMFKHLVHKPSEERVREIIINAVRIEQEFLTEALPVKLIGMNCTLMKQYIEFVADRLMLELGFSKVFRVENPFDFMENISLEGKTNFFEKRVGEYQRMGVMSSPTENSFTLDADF
# Experimental: (§2) The buffer solution (50 mM HEPES at pH 7.6, 5% (v/v) glycerol, 0.1M KCl) and the hRRM2 protein in the buffer solution were prepared under deoxygenated conditions. Both solutions were taken into the glove box and FeNH4SO4 was dissolved in the buffer solution. 5 equivalents of Fe (II) per hRRM2 dimer from FeNH4SO4 (determined by Ferrozine assay) was added to the protein solution and incubated at 4° C. in the glove box. Upon removal of the protein from the glove box, freshly prepared O2-saturated buffer solution (50 mM HEPES at pH 7.6, 5% (v/v) glycerol, 0.1M KCl) was added. Excess iron was removed by S200 10/300 size exclusion chromatography. […] The reaction mixture was pre-incubated for 3 min at 37° C., and 30 μL aliquots were sampled at fixed time intervals after initiating the reaction. Reactions were quenched by immersion in a boiling water bath, cooling, and treatment with alkaline phosphatase. The product ^14-dADP that formed during the reaction was separated from substrate-ADP using boronate affinity chromatography. ^14-dADP was quantified by liquid scintillation counting using a Beckman LS6500 liquid scintillation counter.
# (§3) Briefly, boronate chromatography was used to separate the product.
# hRR (hRRM1 and hRRM2) [3] = target: T1, hRR (hRRM1 and hRRM2); test: biochemical
# Experimental: as §2, §3
# [4] = test system: MDA-MB-231, HCT116, A549 and Panc1 cell lines; test: Detailed growth inhibition studies, median effect dose; format: cell-based; conditions: Homo sapiens; for IC50: 72 h, read-out: median effect dose (Dm), growth inhibitory activity
# Experimental: Cell were maintained in standard tissue culture media (RPMI1640, +10% fetal bovine serum, plus antibiotic) and grown in a standard humidified 5% CO2 incubator at 37° C. […] For moderate throughput screening (up to 120 drugs per experiment), cells were seeded into 96 well plates and allowed to attach overnight. The following day media was removed and replaced with fresh compound containing media. Each compound was tested against both cell lines at 3 concentrations; 1 μM, 10 μM and 50 μM, in duplicate. Cells were incubated with compound containing media for three days in a standard 5% CO2 tissue culture incubator. Cell growth was assessed after 3 days using the DNA dye binding assay, as originally described by LaBarca and Paigen. Relative growth was independently calculated for each cell line, based on DNA content from corresponding cells grown in control media plus diluent (DMSO). […] The following day media was removed and replaced with drug containing media.
# Over 190 compounds were screened for their ability to inhibit growth and/or induce cell death in established cancer cell lines.
# RR = target: T2, RR (Homo sapiens, UniProt P23921); test: In Vivo RR IC50 (Table 2); format: cell-based; conditions: In Vivo RR IC50^b (μM)
# T2 construct: endogenous in cells; host or cells: established human cancer cell lines (MDA-MB-231, HCT-116; also A549, Panc1)
# T2 sequence (P23921 1-792): T1 sequence (P23921 1-792)
# T2 sequence (P31350 1-389 partner): T1 sequence (P31350 1-389 partner)
smiles,measurement,setting,value
CCOC(=O)C(NC(=O)CN[C@H]1CCCc2sccc21)C(=O)OCC,In Cell IC50 (μM),[1],ne^b
CCCCCCCCCCCCCCNC(=O)[C@@H](N)CCN,In Cell IC50 (μM),[1],ne
CCC(C)(C)c1ccc(OCCCCNC(=O)c2cc(Oc3ccc([N+](=O)[O-])cc3)c3ccccc3c2O)c(C(C)(C)CC)c1,In Cell IC50 (μM),[1],ne^b
CC(NCCCCCO)c1cc(OCc2ccccc2)cc(OCc2ccccc2)c1 (stereo not drawn),In Cell IC50 (μM),[1],non-toxic
CCOC(=O)C[C@@H](CC(=O)NCCN[C@H](C)c1ccc(O)c(C(=O)OC)c1)OC(C)=O,In Cell IC50 (μM),[1],ne^b
CCCCCCCCCCCCCCCC(=O)N[C@@H](CCCCN)C(=O)N[C@@H](CCCCN)C(=O)OC,In Cell IC50 (μM),[1],ne
O=C(N/N=C/c1cc2ccccc2cc1O)c1ccccc1O,IC50,select cancer cell lines,> 10 µM
O=C(N/N=C/c1ccc2cc(O)ccc2c1)c1ccccc1O,IC50,select cancer cell lines,> 10 µM
Nc1ccccc1C(=O)N/N=C/c1c(O)ccc2ccccc12,Cellular IC50,select cancer cell lines,No cytotoxicity
O=C(N/N=C/c1c(O)ccc2ccccc12)c1cccnc1,IC50,hRR (hRRM1 and hRRM2) [2],5.3 µM
same,Cellular IC50,select cancer cell lines,No cytotoxicity
COc1cc(C(=O)N/N=C/c2c(O)ccc3ccccc23)ccc1O,IC50,hRR (hRRM1 and hRRM2) [3],687 µM
same,Cellular IC50,select cancer cell lines,No cytotoxicity
CN(C)c1ccc(C(=O)N/N=C/c2c(O)ccc3ccccc23)cc1,IC50,select cancer cell lines,> 10 µM
COc1ccc(C(=O)N/N=C/c2c(O)ccc3ccccc23)cc1,IC50,hRR (hRRM1 and hRRM2) [3],94.1 µM
same,IC50,select cancer cell lines,> 10 µM
Cc1ccc(C(=O)N/N=C/c2c(O)ccc3ccccc23)cc1,IC50,hRR (hRRM1 and hRRM2) [3],86.8 µM
same,Cellular IC50,select cancer cell lines,No cytotoxicity
Oc1ccc2ccccc2c1/C=N/NCc1ccccc1,IC50,select cancer cell lines,> 10 µM
Oc1ccc2ccccc2c1/C=N/Nc1ccc(Br)cc1,IC50,select cancer cell lines,> 10 µM
O=[N+]([O-])c1ccc(N/N=C/c2c(O)ccc3ccccc23)cc1,IC50,select cancer cell lines,> 10 µM
O=C(N/N=C/c1c[nH]c2ccc(O)cc12)c1ccccc1O,IC50,select cancer cell lines,> 10 µM
O=S(=O)(N/N=C/c1c(O)ccc2ccccc12)c1ccccc1,IC50,hRR (hRRM1 and hRRM2) [2],122 µM
same,IC50,select cancer cell lines,> 10 µM
O=S(=O)(Cc1ccccc1)N/N=C/c1c(O)ccc2ccccc12,Cellular IC50,select cancer cell lines,No cytotoxicity
O=[N+]([O-])c1ccc(S(=O)(=O)N/N=C/c2c(O)ccc3ccccc23)cc1,Cellular IC50,select cancer cell lines,No cytotoxicity
CC1(C)C2CC(=O)C1C(CS(=O)(=O)N/N=C/c1c(O)ccc3ccccc13)C2 (stereo not drawn),IC50,hRR (hRRM1 and hRRM2) [2],298 µM
same,Cellular IC50,select cancer cell lines,No cytotoxicity
Cc1ccc(S(=O)(=O)N/N=C/c2c(O)ccc3ccccc23)cc1,IC50,hRR (hRRM1 and hRRM2) [2],6.8 µM
same,Cellular IC50,select cancer cell lines,No cytotoxicity
Nc1ccc(C(=O)N/N=C/c2c(O)ccc3ccccc23)cc1Cl,IC50,select cancer cell lines,> 10 µM
O=C(N/N=C/c1c(O)ccc2ccccc12)c1ccc([N+](=O)[O-])c(Cl)c1,Cellular IC50,select cancer cell lines,No cytotoxicity
COc1ccc(Br)cc1C(=O)N/N=C/c1c(O)ccc2ccccc12,IC50,select cancer cell lines,> 1 µM
COc1cc(Br)ccc1C(=O)N/N=C/c1c(O)ccc2ccccc12,IC50,select cancer cell lines,> 10 µM
O=C(N/N=C/c1c(O)ccc2ccccc12)OCc1ccccc1,Cellular IC50,select cancer cell lines,No cytotoxicity
O=C(N/N=C/c1c[nH]c2ccc([N+](=O)[O-])cc12)c1ccccc1O,Cellular IC50,select cancer cell lines,No cytotoxicity
Cc1cccc2c(/C=N/NC(=O)c3ccccc3O)c[nH]c12,Cellular IC50,select cancer cell lines,No cytotoxicity
O=C(c1ccccc1O)n1cc(-c2c(O)ccc3ccccc23)nn1,IC50,hRR (hRRM1 and hRRM2) [3],8.1 µM
same,Cellular IC50,select cancer cell lines,No cytotoxicity
Cc1c(-n2cc(-c3ccc4cc(O)ccc4c3)nn2)c(=O)n(-c2ccccc2)n1C,IC50,hRR (hRRM1 and hRRM2) [3],31.3 µM
same,Cellular IC50,select cancer cell lines,No cytotoxicity
OCc1ccccc1-n1cc(-c2ccc3cc(O)ccc3c2)nn1,IC50,hRR (hRRM1 and hRRM2) [3],607 µM
same,Cellular IC50,select cancer cell lines,No cytotoxicity
O=c1nc(-n2cc(-c3ccc4cc(O)ccc4c3)nn2)cc[nH]1,IC50,hRR (hRRM1 and hRRM2) [3],269 µM
same,Cellular IC50,select cancer cell lines,No cytotoxicity
Oc1ccc(CCn2cc(-c3ccc4cc(O)ccc4c3)nn2)cc1,Cellular IC50,select cancer cell lines,No cytotoxicity
Oc1ccc2cc(-c3cn(-c4ccc5[nH]ccc5c4)nn3)ccc2c1,Cellular IC50,select cancer cell lines,No cytotoxicity
O=c1oc(-c2ccccc2-c2ccccc2-c2nc3ccccc3c(=O)o2)nc2ccccc12,IC50,hRR (hRRM1 and hRRM2) [3],40.2 µM
same,Cellular IC50,select cancer cell lines,No cytotoxicity
O=C1C=Cc2cc(C3=NC4C=CC=CC4S(=O)(=O)N3)c(=O)oc2C1 (stereo not drawn),IC50,hRR (hRRM1 and hRRM2) [3],13.2 µM
same,Cellular IC50,select cancer cell lines,No cytotoxicity
O=C(O)c1ccccc1-c1ccccc1C(=O)c1ccc2ccccc2n1,IC50,hRR (hRRM1 and hRRM2) [3],3.8 µM
same,Cellular IC50,select cancer cell lines,No cytotoxicity
O=C(Nc1ccccc1C(=O)O)c1ccc2ccccc2n1,IC50,hRR (hRRM1 and hRRM2) [3],15.3 µM
same,Cellular IC50,select cancer cell lines,No cytotoxicity
OC(COc1ccc(OCC(O)CN2CCN(C3c4ccccc4-c4ccccc43)CC2)cc1)CN1CCN(C2c3ccccc3-c3ccccc32)CC1 (stereo not drawn) [compound 2],IC50,[1],3 to 8 µM
same,IC50,[4],1 to 10 µM
same,inhibition at 10 µM,[4]; read-out: growth inhibition,~100%
"O=C(CCCCCCCCC(=O)N/N=C/c1c(O)ccc2ccccc12)N/N=C/c1c(O)ccc2ccccc12 [compound 4, N′1,N′10-bis((E)-(2-hydroxynaphthalenyl)methylene) decanedihydrazide]",IC50,[1],0.06 to 2 µM
same,IC50,"RR; 1 μM, sub-column 1 μM",0.674 µM
same,IC50,"RR; 10 μM, sub-column 10 μM",0.792 µM
same,IC50,hRR (hRRM1 and hRRM2) [3],39.8 ± 0.9 µM
same,IC50,"[4]; set of four cell lines, 3 days",1 to 10 µM
CC(C)(NC(=O)CN1C(=O)c2ccccc2C1=O)C(=O)NCCCC[C@H](NC(=O)CC(O)(C(F)(F)F)C(F)(F)F)C(=O)O [compound 6],IC50,[1],30 µM
CCCOc1ccc(C(=O)OCCN(CC)CC)cc1NS(=O)(=O)/C=C/c1ccccc1 [compound 8],In Cell IC50 (μM),[1],ne^b
CNCC(=O)N[C@@H](CCCNC(=N)N)C(=O)N[C@H](C(=O)NC(Cc1ccc(O)cc1)C(=O)N[C@H](C(=O)N[C@@H](Cc1cnc[nH]1)C(=O)O)C(C)C)C(C)C (stereo partly drawn) [compound 9] (H-[Sar]RV[ξY]VH-OH),In Cell IC50 (μM),[1],non-toxic
